The values below come from ChEMBL document CHEMBL1201862, “PubChem BioAssay data set” (2004).

What all share (assay): inhibition of tumour cell growth, NCI panel, 48 h
The test system of assay [1] is CAKI-1.
The test system of assay [2] is KM12.
In assay [3] the test system is SF-295.
Assay [4] has as its system NCI/ADR-RES.
Assay [5] deals with RXF 393.
Assay [6] deals with OVCAR-8.
Assay [7] deals with TK-10.
The subject of assay [8] is HCT-116.
The test system of assay [9] is LOX IMVI.
Assay [10] has as its system OVCAR-4.
Assay [11] has as its system HL-60.
Assay [12] concerns HCT-15.
The test system of assay [13] is SNB-75.
The subject of assay [14] is SF-268.
For assay [15], the system named is SNB-19.
Assay [16] relates to IGROV-1.
The subject of assay [17] is RPMI-8226.
For assay [18], the system named is SK-MEL-28.
Assay [19] has as its system CCRF-CEM.
The subject of assay [20] is HOP-92.

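Compound exposure: 48 hours, 5 concentrations, 96-well plates. GI50 = concentration required for 50% inhibition of growth.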 Activity calls are given as the source filed them. Rule as the data show it: active = GI50 up to about 1.1 µM and inactive = higher.

On to `Cc1ccnc(NC(=S)Nc2ccccc2Cl)c1`, for which the GI50 in [1] is > 100 µM (inactive); in [2] it was > 100 µM (inactive); in assay [3] it was 87.7 µM (inactive); in [4], > 100 µM (inactive); in [5], > 100 µM (inactive); in assay [6] it was 77.8 µM (inactive). The GI50 in [7] is > 100 µM (inactive); in [8], > 100 µM (inactive); in [9], > 100 µM (inactive); in assay [10], > 100 µM (inactive); in [11] it was > 100 µM (inactive); in assay [12], > 100 µM. In addition, the GI50 in [13] was 13 µM (inactive); in assay [14], 33.6 µM (inactive); in [15], > 100 µM (inactive); in assay [16], 61.2 µM (inactive); in assay [17], > 100 µM (inactive); in assay [18] it was > 100 µM (inactive). The GI50 in assay [19] is > 100 µM (inactive).

With `CCCC(C(=O)Nc1cccc2nc[nH]c12)C(=O)OCC` (centres undefined), the GI50 in assay [2] is > 100 µM (inactive); in assay [3] it was > 100 µM (inactive); in assay [4] it was 79.1 µM (inactive); in [6] it was > 100 µM (inactive); in [7], > 100 µM (inactive); in assay [8], > 100 µM (inactive). Further, the GI50 is > 100 µM (inactive) in [9]; > 100 µM (inactive) in assay [10]; > 100 µM (inactive) in assay [11]; > 100 µM in [12]; > 100 µM (inactive) in [13]; > 100 µM (inactive) in assay [14]. Also, the GI50 in assay [15], in assay [16], in [17], in assay [18] and in [20] was > 100 µM (inactive) in each case.

As for `CS/C1=C(\c2ccc(C)cc2)N(c2ccccc2)C(=O)C(=O)N(c2ccccc2)/C(c2ccc(C)cc2)=C(/SC)SS1`, the GI50 in [1], in assay [3], in assay [4], in [6], in assay [7] and in assay [8] was > 100 µM (inactive) each time. Moreover, the GI50 in assay [9] was > 100 µM (inactive); in assay [10] it was > 100 µM (inactive); in [11], > 100 µM (inactive); in [12] it was > 100 µM; in [13], > 100 µM (inactive); in assay [14], > 100 µM (inactive). Moreover, the GI50 in assay [15], in assay [16], in assay [17], in assay [18], in assay [20] and in assay [19] was > 100 µM (inactive) in each case.

On to `COC(=O)C1CC2CC1C1C2SC(F)(F)C1(F)F` (centres undefined), for which the GI50 in assay [1], in assay [2], in assay [3], in [4], in [5] and in [6] was > 100 µM (inactive) each time. For the same compound, the GI50 in [7] is > 100 µM (inactive); in assay [8], > 100 µM (inactive); in assay [9], > 100 µM (inactive); in assay [10], > 100 µM (inactive); in [12], > 100 µM; in [13], > 100 µM (inactive). Also, the GI50 in [14], in assay [15], in assay [16], in assay [17] and in [18] was > 100 µM (inactive) in each case.

As for `COc1ccc(-c2c(C(C)=O)c(C)n(C3OC(CO)C(O)C(O)C3O)c(=S)c2C#N)cc1` (centres undefined), the GI50 in [1] was > 100 µM (inactive); in assay [2], 90.6 µM (inactive); in assay [3], 72.9 µM (inactive); in assay [4] it was 93.5 µM (inactive); in assay [5], 73.1 µM (inactive); in assay [6], 58.2 µM (inactive). Further, the GI50 in [7] was > 100 µM (inactive); in assay [8], 86.9 µM (inactive); in [9], 45.5 µM (inactive); in assay [10], 95.5 µM (inactive); in [11], 41 µM (inactive); in assay [12], > 100 µM. The GI50 in [13] is 80.9 µM (inactive); in assay [14], > 100 µM (inactive); in assay [15], 19.5 µM (inactive); in assay [16] it was > 100 µM (inactive); in [17], 83.6 µM (inactive); in assay [18], 44.6 µM (inactive). For the same compound, the GI50 in assay [19] was 38.3 µM (inactive).

With `O=C(/C=C/c1ccccc1O)/C=C/c1ccccc1O`, the GI50 in assay [1] is 1.52 µM (inactive); in [2] it was 1.06 µM (active); in assay [3], 1.67 µM (inactive); in [4], 2.14 µM (inactive); in assay [6] it was 2.26 µM (inactive); in assay [7] it was 1.21 µM (inactive). Moreover, the GI50 was 0.332 µM (active) in assay [8]; 0.252 µM (active) in assay [9]; 2.61 µM (inactive) in assay [10]; 2.9 µM (inactive) in assay [11]; 1.45 µM in [12]; 3.9 µM (inactive) in [13]. For the same compound, the GI50 in [14] is 0.254 µM (active); in [15] it was 1.82 µM (inactive); in assay [16], 1.64 µM (inactive); in assay [17], 0.19 µM (active); in assay [18] it was 1.81 µM (inactive); in assay [20] it was 1.39 µM (inactive). Further, in [19], the GI50 is 0.305 µM (active).

For `Cc1ccc(-c2n[nH]c(=O)n2N2C(=O)c3ccccc3C2=O)cc1`, the GI50 in assay [1], in assay [2], in [3], in assay [4], in assay [5] and in [6] was > 100 µM (inactive) each time. For the same compound, the GI50 was > 100 µM (inactive) in assay [7]; > 100 µM (inactive) in assay [8]; > 100 µM (inactive) in [9]; > 100 µM (inactive) in [11]; > 100 µM in assay [12]; > 100 µM (inactive) in assay [13]. For the same compound, the GI50 in assay [14], in assay [15], in assay [16], in [17] and in [18] was > 100 µM (inactive) throughout.

As for `CCOP(=O)(OCC)C(C)(CC)N/C(N)=N/C#N` (centres undefined), the GI50 in assay [2], in assay [3], in assay [4], in assay [5], in assay [6] and in assay [7] was > 100 µM (inactive) in each case. For the same compound, the GI50 in [8] is > 100 µM (inactive); in assay [9] it was > 100 µM (inactive); in assay [10], > 100 µM (inactive); in [11] it was > 100 µM (inactive); in assay [12], > 100 µM; in assay [13], > 100 µM (inactive). The GI50 in assay [14], in [15], in assay [16], in assay [17], in [18] and in assay [19] was > 100 µM (inactive) each time.
